Literature values, collected in patent publication US20170335399A1, “DETECTION OF MINERALOCORTICOID RECEPTOR ACTIVATION AND PERSONALIZED ANTIHYPERTENSIVE THERAPY BASED THEREON” (The Regents of University of Michigan, priority 2014, published 2017).

Experiments:
ENaC = conditions: patients treated with spironolactone
[1] = biological target: T1, mineralocorticoid receptor (MR) (Homo sapiens, UniProt P08235); conditions: resistant hypertension patients; ASPIRANT trial; placebo-corrected mean
T1 construct: host or cells: patients with resistant hypertension (in vivo)
T1 sequence (P08235 1-984): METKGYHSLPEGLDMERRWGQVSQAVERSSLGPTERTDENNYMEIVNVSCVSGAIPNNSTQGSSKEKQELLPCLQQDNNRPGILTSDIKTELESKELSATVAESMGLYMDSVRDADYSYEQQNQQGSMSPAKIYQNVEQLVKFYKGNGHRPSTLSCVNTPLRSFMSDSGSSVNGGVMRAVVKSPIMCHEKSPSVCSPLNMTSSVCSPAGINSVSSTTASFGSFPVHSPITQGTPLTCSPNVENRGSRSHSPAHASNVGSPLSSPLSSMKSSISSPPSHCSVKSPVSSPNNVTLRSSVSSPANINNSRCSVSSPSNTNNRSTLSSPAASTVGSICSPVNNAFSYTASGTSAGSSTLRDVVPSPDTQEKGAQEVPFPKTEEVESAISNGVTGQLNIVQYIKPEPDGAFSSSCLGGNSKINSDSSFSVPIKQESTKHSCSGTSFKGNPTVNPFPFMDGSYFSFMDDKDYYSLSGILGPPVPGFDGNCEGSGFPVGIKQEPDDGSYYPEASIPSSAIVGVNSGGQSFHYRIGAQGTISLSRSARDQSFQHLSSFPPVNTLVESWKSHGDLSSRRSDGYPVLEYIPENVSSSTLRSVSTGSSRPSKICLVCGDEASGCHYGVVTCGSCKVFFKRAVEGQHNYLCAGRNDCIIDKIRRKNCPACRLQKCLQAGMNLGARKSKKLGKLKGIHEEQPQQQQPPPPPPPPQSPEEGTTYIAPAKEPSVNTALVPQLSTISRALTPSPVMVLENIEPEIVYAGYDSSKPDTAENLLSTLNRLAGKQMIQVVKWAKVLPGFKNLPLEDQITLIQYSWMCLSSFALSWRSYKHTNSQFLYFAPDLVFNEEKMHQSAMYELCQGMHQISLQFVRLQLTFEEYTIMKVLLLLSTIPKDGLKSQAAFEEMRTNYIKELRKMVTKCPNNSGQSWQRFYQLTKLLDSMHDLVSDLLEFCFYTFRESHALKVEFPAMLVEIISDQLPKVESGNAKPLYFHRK

[2] = biological target: T1, mineralocorticoid receptor (MR); conditions: resistant hypertension; after addition of spironolactone; other studies

CC(=O)S[C@@H]1CC2=CC(=O)CC[C@]2(C)[C@H]2CC[C@@]3(C)[C@@H](CC[C@@]34CCC(=O)O4)[C@H]12 [spironolactone]
ENaC expression on peripheral blood mononuclear cells (ENaC): decreased
mean reduction of 24-hour systolic blood pressure more than placebo [1]: 9.8 mm Hg
mean reductions in systolic blood pressure [2]: 16-26 mm Hg
